“And” between values parts separate entries of the source, which are not always exact repeats. Identical values can stand only once.
Legend:
hABHD6 = biological target: T1, hABHD6 (Homo sapiens, UniProt Q9BV23); experiment: Hydrolase activity assay, hABHD6-HEK lysates; type: biochemical; conditions: hABHD6-HEK lysates; read-out: IC50
T1 construct: expressed in transfected cells; host or cells: HEK293
T1 sequence (Q9BV23 1-337): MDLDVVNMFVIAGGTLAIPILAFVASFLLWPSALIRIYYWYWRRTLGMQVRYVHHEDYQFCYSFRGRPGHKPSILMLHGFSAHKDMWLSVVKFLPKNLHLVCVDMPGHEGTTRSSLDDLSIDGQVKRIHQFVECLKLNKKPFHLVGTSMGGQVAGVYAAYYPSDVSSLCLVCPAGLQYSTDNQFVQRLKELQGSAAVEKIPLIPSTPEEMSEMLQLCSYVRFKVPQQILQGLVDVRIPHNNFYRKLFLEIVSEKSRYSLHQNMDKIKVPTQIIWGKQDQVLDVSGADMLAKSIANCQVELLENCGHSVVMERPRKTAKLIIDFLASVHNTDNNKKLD

hMAGL = biological target: T2, hMAGL (Homo sapiens, UniProt Q99685); experiment: Hydrolase activity assay, hMAGL-HEK lysates; type: biochemical
T2 construct: expressed in transfected cells; host or cells: HEK
T2 sequence (Q99685 1-303): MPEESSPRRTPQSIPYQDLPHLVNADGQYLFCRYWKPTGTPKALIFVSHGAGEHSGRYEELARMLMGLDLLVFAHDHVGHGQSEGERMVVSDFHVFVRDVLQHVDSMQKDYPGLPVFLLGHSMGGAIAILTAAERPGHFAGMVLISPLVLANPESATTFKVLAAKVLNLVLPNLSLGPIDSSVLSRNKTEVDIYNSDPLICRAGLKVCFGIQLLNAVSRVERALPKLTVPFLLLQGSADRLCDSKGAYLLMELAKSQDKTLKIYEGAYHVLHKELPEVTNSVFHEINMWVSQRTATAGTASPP

hABHD12 = biological target: T3, hABHD12 (Homo sapiens, UniProt Q8N2K0); experiment: Hydrolase activity assay, hABHD12-HEK lysates; type: biochemical
T3 construct: expressed in transfected cells; host or cells: HEK293
T3 sequence (Q8N2K0 1-398): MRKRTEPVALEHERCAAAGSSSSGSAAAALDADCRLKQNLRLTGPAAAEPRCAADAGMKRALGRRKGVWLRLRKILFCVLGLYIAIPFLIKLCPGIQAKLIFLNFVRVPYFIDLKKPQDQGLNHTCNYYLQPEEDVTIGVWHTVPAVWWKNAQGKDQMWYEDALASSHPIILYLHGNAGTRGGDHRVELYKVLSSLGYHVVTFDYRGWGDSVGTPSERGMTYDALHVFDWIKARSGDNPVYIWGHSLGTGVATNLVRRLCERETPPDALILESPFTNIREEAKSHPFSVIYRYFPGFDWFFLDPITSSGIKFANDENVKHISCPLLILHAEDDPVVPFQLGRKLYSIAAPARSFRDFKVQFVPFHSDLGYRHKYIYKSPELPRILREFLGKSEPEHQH

mBAT5 = biological target: T4, mBAT5 (Mus musculus, UniProt Q9Z1Q2); experiment: Competitive ABPP (TAMRA-FP) with mBAT5-HEK293 lysates; conditions: 1 h pretreatment
T4 sequence (Q9Z1Q2 1-558): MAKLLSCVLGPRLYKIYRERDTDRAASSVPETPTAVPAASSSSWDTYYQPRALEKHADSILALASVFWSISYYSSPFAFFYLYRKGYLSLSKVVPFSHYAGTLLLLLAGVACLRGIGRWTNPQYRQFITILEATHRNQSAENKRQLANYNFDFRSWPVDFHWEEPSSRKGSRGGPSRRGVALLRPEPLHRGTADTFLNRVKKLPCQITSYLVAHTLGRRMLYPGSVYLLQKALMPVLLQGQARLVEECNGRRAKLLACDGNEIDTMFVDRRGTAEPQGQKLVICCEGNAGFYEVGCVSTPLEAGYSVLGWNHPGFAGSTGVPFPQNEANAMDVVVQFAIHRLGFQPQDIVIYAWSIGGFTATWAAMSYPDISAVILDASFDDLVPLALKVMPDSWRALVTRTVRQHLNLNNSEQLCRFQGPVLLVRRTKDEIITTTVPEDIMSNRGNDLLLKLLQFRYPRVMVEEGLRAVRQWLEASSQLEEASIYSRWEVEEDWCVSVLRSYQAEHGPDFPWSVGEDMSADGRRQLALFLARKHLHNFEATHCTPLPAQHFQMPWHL
Method: Inhibitor dose–response curves and IC50 values derived thereof were calculated from non-linear regressions using GraphPad Prism 5.0 for Windows. The logIC50 values are means ± SEM from three independent experiments. […] The data are derived from three separate ABPP experiments.

hFAAH = biological target: T5, hFAAH (Homo sapiens, UniProt O00519); experiment: FAAH activity assay, hFAAH-COS7 membranes (3H-anandamide); type: biochemical
T5 construct: expressed in transfected cells; host or cells: COS-7
T5 sequence (O00519 1-579): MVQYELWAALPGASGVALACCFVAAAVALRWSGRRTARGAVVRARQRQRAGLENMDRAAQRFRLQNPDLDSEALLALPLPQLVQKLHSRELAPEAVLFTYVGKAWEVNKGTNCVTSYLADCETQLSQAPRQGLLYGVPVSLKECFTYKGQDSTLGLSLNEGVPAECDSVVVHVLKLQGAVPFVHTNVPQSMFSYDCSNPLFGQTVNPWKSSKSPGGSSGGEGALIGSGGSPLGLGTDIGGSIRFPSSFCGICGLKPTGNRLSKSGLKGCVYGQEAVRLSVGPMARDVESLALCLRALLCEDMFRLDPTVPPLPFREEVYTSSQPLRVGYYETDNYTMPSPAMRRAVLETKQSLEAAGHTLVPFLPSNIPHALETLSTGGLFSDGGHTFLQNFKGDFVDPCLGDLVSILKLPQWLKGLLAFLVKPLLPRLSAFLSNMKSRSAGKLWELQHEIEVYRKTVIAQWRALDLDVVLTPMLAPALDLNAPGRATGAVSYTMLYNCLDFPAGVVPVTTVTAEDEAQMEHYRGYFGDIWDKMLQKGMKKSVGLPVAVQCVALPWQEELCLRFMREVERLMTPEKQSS

hBAT5 = biological target: T6, hBAT5 (Homo sapiens, UniProt O95870); experiment: Inhibition of 1-LG hydrolysis in hBAT5-HEK293 lysates (fluorescent glycerol assay); type: biochemical; design: host or cells: HEK293
T6 sequence (O95870 1-558): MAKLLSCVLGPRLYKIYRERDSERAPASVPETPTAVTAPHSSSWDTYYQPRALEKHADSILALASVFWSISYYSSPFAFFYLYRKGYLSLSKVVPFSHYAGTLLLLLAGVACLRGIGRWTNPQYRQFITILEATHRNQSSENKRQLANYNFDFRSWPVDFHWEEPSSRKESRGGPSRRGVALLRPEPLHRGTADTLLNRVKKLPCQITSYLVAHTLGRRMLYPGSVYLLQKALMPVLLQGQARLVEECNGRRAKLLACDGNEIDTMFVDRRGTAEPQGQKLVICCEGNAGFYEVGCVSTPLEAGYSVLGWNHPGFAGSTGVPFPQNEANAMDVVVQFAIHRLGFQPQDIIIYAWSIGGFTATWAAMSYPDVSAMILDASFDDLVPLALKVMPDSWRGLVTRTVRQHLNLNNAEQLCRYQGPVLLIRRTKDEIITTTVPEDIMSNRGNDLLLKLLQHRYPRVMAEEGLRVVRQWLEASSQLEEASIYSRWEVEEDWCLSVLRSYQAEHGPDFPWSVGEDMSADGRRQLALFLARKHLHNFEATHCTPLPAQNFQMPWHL

[1] = at 10^−5 M, read-out: Remaining activity

CC(=C\C(=O)O)/C=C(\C)C[C@H](C)CCCC[C@H]1OC(=O)[C@@H]1CO [Hymeglusin, hymeglusin]
IC50 (hABHD6): ~3.2 µM and 3.2 µM
sensitivity of hMAGL (in words) (hMAGL): resistant
remaining activity at 10 µM (hMAGL; [1]): 106%
sensitivity of hABHD12 (in words) (hABHD12): resistant
remaining activity at 10 µM (hABHD12; [1]): 103%
inhibition of probe binding to mBAT5 (in words) (mBAT5): inactive
sensitivity of hFAAH (in words) (hFAAH): resistant
remaining activity at 10 µM (hFAAH; [1]): 79.2%
hBAT5 inhibitory activity (in words) (hBAT5; 1-LG hydrolysis): inactive
remaining activity at 10 µM (hBAT5; at 10^-5 M, 1-LG 25 µM): 102.6 ± 1%

Source: PMC4188605, “Biochemical and Pharmacological Characterization of the Human Lymphocyte Antigen B-Associated Transcript 5 (BAT5/ABHD16A)” (PLoS ONE, 2014)
